Our source for the inhibition in vivo and IC50 values is patent US9452986B2, “6-heteroaryloxy- or 6-aryloxy-quinoline-2-carboxamides and method of use” (AbbVie Inc., priority 2014, dated 2016).

One assay concerns osteoarthritic rats. Put plainly: Osteoarthritic (OA) pain induced by sodium monoiodoacetate (MIA), hind limb grip force. In kind it is in vivo, rat. Conditions: Rattus norvegicus, 480 h, read-out: OA MPE; for inhibition in vivo at 10 mg/kg: OA dose 10 mg/kg. An outline of the steps:
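Activity-induced pain was read as maximum compressive hind limb grip force, two sequential trials normalized to body weight, 20 days after intra-articular MIA (3 mg/rat) in male Sprague Dawley rats. Randomized, blinded dosing; effect expressed as return toward naïve-animal response relative to vehicle.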

Assay [1] deals with spinal nerve ligated rats. In words: Rat spinal nerve ligation (SNL) model of neuropathic pain, paw withdrawal threshold. In kind it is in vivo. As to conditions: read-out: SNL MPE. An excerpt: Rat Spinal Nerve Ligation (SNL) Model of Neuropathic Pain.
The male Sprague Dawley rats (Charles River Laboratories, Wilmington, Mass.), weighing 150-175 g at the time of surgery, were placed under isoflurane anesthesia and a 1.5 cm incision was made dorsal to the lumbosacral plexus. The paraspinal muscles (left side) were separated from the spinous processes, the left L5 and L6 spinal nerves isolated, and tightly ligated with 5-0 silk suture distal to the dorsal root ganglion. Care was taken to avoid ligating the L4 spinal nerve. Following spinal nerve ligation, a minimum of 7 days of recovery and no more than 3 weeks was allowed prior to the behavioral testing (mechanical sensitivity). Only rats with threshold scores ≦4.5 g were considered allodynic and utilized in pharmacological experiments.
Mechanical sensitivity was measured using calibrated von Frey filaments (Stoelting, Wood Dale, Ill.). […] The von Frey filaments were presented perpendicularly to the plantar surface of the selected hind paw, and then held in this position for approximately 8 seconds with enough force to cause a slight bend in the filament. Positive responses included an abrupt withdrawal of the hind paw from the stimulus, or flinching behavior immediately following removal of the stimulus. […] A percent maximal possible effect (% MPE) of testing compound was calculated according to the formula: (Log [compound−treated threshold]−Log [vehicle−treated threshold])/(Log [maximum threshold]−Log [vehicle−treated threshold])×100%, where the maximum threshold was equal to 15 g.
The animals were housed in Association for Assessment and Accreditation of Laboratory Animal Care (AAALAC) approved facilities at AbbVie Inc. in a temperature-regulated environment under a controlled 12-hour light-dark cycle, with lights on at 6:00 a.m. Food and water were available ad libitum at all times except during testing. All testing was done following procedures outlined in protocols approved by AbbVie Inc.s' Institutional Animal Care and Use Committee.

The target in another assay is recombinant human Nav1.8 (Homo sapiens (Human), UniProt Q9Y5Y9). In words: FRET-based membrane potential assay, recombinant human sodium channel Nav1.8. In kind it is cell-based.
The next assay deals with recombinant human Nav1.7 (Homo sapiens (Human), UniProt Q15858). Put plainly: FRET-based membrane potential assay, recombinant human sodium channel Nav1.7. Conditions: read-out: FRET-Membrane Potential Nav1.7 IC50. In kind it is cell-based. An outline of the steps: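 Channel activation used veratridine at its EC80, set by a dilution curve each experiment, together with Leiurus scorpion venom, added 3 min after compound. Membrane-potential ratio signals from FLIPR Tetra in HEPES-buffered HBSS were fitted to a four-parameter Hill equation for percent inhibition and IC50.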

[2] abbreviates: OA dose 30 mg/kg, rat, 20 days following MIA injection, hind limb grip force.
Where [3] appears, read: SNL dose 100 mg/kg, rat, von Frey paw withdrawal threshold.
Setting [4] is: HEK293 cells stably expressing recombinant human Nav1.8, veratridine + scorpion venom depolarization.
[5] abbreviates: HEK293 cells stably expressing recombinant human Nav1.7, veratridine + scorpion venom depolarization.
Setting [6] is: rat, 20 days following MIA injection, hind limb grip force.

Like-named read-outs stand apart in the source and are kept apart here.

Sequence of recombinant human Nav1.8 (Q9Y5Y9 whole entry): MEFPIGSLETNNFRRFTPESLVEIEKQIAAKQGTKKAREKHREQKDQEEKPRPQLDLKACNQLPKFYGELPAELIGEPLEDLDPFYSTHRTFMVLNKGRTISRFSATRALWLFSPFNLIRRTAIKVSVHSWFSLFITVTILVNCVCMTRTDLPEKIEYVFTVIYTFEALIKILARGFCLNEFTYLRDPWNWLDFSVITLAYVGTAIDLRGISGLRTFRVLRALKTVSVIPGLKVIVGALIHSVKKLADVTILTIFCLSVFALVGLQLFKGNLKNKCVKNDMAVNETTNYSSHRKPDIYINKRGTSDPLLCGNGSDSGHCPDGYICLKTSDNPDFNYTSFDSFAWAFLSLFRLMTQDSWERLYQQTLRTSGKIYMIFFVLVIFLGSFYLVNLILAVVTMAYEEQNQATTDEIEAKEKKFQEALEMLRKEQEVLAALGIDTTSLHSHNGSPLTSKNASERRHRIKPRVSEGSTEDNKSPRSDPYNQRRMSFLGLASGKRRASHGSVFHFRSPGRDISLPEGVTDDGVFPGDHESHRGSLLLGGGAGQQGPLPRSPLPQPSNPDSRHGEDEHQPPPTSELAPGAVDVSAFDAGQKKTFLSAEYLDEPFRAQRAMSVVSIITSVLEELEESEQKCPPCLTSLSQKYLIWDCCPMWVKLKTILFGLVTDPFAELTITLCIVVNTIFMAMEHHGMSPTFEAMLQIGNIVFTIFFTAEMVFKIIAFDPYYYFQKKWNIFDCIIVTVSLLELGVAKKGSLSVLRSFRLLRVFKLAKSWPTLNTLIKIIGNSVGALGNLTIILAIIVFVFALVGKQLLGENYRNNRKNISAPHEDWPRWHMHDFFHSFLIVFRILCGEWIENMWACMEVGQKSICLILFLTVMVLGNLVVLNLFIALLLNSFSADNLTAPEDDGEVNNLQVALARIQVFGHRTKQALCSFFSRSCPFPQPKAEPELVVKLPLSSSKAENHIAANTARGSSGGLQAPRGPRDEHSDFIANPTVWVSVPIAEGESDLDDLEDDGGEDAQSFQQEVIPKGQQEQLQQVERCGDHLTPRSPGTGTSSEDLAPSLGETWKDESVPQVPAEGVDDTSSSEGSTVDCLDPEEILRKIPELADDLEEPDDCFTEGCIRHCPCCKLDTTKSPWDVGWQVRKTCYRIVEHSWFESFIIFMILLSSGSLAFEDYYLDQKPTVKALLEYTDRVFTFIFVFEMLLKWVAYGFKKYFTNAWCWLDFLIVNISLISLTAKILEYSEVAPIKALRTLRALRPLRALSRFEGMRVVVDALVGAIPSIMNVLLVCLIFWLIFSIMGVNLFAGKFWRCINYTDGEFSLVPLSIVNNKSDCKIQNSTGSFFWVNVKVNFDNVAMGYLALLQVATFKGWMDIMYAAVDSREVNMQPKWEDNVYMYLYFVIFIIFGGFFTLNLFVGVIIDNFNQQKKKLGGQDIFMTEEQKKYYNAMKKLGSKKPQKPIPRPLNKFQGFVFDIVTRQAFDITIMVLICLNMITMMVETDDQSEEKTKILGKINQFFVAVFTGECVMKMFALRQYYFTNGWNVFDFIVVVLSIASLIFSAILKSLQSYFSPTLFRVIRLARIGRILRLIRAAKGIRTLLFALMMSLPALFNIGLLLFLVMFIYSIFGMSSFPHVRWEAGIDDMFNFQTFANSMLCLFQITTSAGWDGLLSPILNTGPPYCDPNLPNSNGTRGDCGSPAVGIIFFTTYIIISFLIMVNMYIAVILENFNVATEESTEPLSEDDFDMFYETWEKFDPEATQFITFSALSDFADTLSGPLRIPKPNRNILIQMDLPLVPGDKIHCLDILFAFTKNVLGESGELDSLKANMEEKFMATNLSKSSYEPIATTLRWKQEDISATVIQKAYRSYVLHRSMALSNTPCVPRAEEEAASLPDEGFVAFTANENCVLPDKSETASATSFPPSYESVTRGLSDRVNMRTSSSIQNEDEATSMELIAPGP
Sequence of recombinant human Nav1.7 (Q15858 whole entry): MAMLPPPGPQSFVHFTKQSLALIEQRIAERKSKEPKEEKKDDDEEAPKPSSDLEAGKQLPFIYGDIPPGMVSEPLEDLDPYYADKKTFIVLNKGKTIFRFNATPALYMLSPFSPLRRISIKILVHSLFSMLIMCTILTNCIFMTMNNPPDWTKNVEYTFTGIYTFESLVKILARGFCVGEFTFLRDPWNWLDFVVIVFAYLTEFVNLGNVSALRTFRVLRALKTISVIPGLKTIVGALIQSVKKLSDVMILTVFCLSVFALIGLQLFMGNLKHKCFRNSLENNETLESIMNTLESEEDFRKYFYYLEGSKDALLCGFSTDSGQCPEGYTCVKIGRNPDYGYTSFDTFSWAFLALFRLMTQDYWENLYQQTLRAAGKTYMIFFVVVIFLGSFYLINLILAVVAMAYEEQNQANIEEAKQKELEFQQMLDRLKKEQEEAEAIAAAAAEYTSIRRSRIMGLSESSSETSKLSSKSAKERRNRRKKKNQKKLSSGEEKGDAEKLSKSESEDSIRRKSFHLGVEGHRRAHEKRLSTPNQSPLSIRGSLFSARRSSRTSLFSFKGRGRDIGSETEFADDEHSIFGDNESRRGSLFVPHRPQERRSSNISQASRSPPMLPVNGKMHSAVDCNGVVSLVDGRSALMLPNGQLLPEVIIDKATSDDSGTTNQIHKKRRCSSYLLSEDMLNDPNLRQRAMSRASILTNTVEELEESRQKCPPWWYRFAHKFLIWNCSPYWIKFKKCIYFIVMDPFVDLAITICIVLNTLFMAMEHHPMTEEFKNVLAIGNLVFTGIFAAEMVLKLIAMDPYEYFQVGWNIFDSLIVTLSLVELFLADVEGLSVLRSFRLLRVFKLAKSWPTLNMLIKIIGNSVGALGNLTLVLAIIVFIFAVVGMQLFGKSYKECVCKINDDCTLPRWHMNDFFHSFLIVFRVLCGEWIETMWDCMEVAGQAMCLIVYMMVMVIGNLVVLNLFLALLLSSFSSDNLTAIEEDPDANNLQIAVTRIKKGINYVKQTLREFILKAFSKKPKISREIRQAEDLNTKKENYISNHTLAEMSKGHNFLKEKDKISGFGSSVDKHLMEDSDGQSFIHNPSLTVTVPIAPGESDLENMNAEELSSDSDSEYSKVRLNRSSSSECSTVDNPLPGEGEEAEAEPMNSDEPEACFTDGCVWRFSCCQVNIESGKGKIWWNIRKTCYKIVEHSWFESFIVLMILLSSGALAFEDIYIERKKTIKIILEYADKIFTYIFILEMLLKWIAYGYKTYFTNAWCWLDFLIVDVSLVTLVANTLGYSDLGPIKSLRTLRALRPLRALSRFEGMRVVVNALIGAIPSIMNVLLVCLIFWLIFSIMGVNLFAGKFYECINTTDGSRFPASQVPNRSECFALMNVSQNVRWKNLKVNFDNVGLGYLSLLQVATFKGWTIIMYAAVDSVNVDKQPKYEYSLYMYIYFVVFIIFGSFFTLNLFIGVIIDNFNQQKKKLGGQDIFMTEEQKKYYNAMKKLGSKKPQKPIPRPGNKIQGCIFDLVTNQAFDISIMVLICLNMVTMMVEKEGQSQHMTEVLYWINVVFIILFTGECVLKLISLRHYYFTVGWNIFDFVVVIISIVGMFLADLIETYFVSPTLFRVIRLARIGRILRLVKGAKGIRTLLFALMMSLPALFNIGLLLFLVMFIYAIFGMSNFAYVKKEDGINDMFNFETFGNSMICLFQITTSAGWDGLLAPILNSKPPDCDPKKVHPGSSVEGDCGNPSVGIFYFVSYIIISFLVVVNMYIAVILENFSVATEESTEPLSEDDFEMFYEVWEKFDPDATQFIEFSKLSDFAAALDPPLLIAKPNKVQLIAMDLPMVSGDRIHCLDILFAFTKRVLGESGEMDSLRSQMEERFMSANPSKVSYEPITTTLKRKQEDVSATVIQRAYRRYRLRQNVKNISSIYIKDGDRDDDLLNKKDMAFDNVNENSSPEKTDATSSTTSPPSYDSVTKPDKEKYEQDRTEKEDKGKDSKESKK

Consider `O=C(c1ccc2cc(Oc3ccc(C(F)(F)F)cn3)ccc2n1)N1CCNCC1` [Example 1, piperazin-1-yl(6-{[5-(trifluoromethyl)pyridin-2-yl]oxy}quinolin-2-yl)methanone], for which, in the assay with osteoarthritic rats (setting [2]), the inhibition in vivo at 30 mg/kg stood at 64%. Also, the inhibition in vivo at 100 mg/kg in assay [1] (setting [3]) turned out to be 49%.

On to `O=C(NC1CCS(=O)(=O)C1)c1ccc2cc(Oc3ccc(C(F)(F)F)cn3)ccc2n1` (stereo not shown) [Example 2, N-(1,1-dioxidotetrahydrothiophen-3-yl)-6-{[5-(trifluoromethyl)pyridin-2-yl]oxy}quinoline-2-carboxamide], for which the 50% inhibitory concentration (IC50) on recombinant human Nav1.8 (setting [4]) amounted to 648 nM; on recombinant human Nav1.7 (setting [5]) it was 504 nM. The inhibition in vivo at 30 mg/kg in the assay with osteoarthritic rats (setting [2]) amounted to 85%. Besides, the inhibition in vivo at 100 mg/kg in assay [1] (setting [3]) amounted to 54%.

Regarding `O=C(N[C@H]1CCS(=O)(=O)C1)c1ccc2cc(Oc3ccc(C(F)(F)F)cn3)ccc2n1` [Example 4, N-[(3S)-1,1-dioxidotetrahydrothiophen-3-yl]-6-{[5-(trifluoromethyl)pyridin-2-yl]oxy}quinoline-2-carboxamide], at recombinant human Nav1.7 (setting [5]), the IC50 turned out to be 856 nM. In addition, the inhibition in vivo at 30 mg/kg with osteoarthritic rats (setting [2]) turned out to be 60%. Moreover, the inhibition in vivo at 100 mg/kg in assay [1] (setting [3]) came to 56%.

In the case of `O=C(c1ccc2cc(Oc3ccc(C(F)(F)F)cn3)ccc2n1)N1CC(N2CCOCC2)C1` [Example 6, [3-(morpholin-4-yl)azetidin-1-yl](6-{[5-(trifluoromethyl)pyridin-2-yl]oxy}quinolin-2-yl)methanone], the IC50 on recombinant human Nav1.8 came out at 4610 nM; at recombinant human Nav1.7 (setting [5]), 2930 nM. Besides, in the assay with osteoarthritic rats (setting [6]), the inhibition in vivo at 10 mg/kg amounted to 72%. Further, the inhibition in vivo at 100 mg/kg in assay [1] (setting [3]) worked out at 27%.

For the molecule `O=C(c1ccc2cc(Oc3ccc(C(F)(F)F)cn3)ccc2n1)N1CCCC1` [Example 10, pyrrolidin-1-yl(6-{[5-(trifluoromethyl)pyridin-2-yl]oxy}quinolin-2-yl)methanone], the inhibition in vivo at 30 mg/kg with osteoarthritic rats was 48%. The inhibition in vivo at 100 mg/kg in assay [1] (Rattus norvegicus) was 35%.

Take `O=C(c1ccc2cc(Oc3ccc(C(F)(F)F)cn3)ccc2n1)N1CCC(N2CCOCC2)CC1` [Example 11, [4-(morpholin-4-yl)piperidin-1-yl](6-{[5-(trifluoromethyl)pyridin-2-yl]oxy}quinolin-2-yl)methanone]: the IC50 stood at 1690 nM at recombinant human Nav1.8 (setting [4]) and 1610 nM at recombinant human Nav1.7 (setting [5]). Further, the inhibition in vivo at 10 mg/kg in the assay with osteoarthritic rats (setting [6]) was 72%. Moreover, the inhibition in vivo at 100 mg/kg in assay [1] (setting [3]) stood at 34%.

For the molecule `O=C(c1ccc2cc(Oc3ccc(C(F)F)cn3)ccc2n1)N1CCNCC1` [Example 14, (6-{[5-(difluoromethyl)pyridin-2-yl]oxy}quinolin-2-yl)(piperazin-1-yl)methanone], the inhibition in vivo at 30 mg/kg with osteoarthritic rats (setting [2]) is 81%. In assay [1] (setting [3]), the inhibition in vivo at 100 mg/kg came out at 44%.

On to `COCCNC(=O)c1ccc2cc(Oc3ccc(C(F)(F)F)cn3)ccc2n1` [Example 22, N-(2-methoxyethyl)-6-{[5-(trifluoromethyl)pyridin-2-yl]oxy}quinoline-2-carboxamide], for which the IC50 was determined as 3540 nM at recombinant human Nav1.8 (setting [4]) and 1980 nM at recombinant human Nav1.7 (setting [5]). Besides, in the assay with osteoarthritic rats (setting [2]), the inhibition in vivo at 30 mg/kg stood at 73%. For the same molecule, in assay [1] (setting [3]), the inhibition in vivo at 100 mg/kg came to 72%.

As to `COC[C@H]1CN(C(=O)c2ccc3cc(Oc4ccc(C(F)(F)F)cn4)ccc3n2)CCN1` [Example 31, [(3R)-3-(methoxymethyl)piperazin-1-yl](6-{[5-(trifluoromethyl)pyridin-2-yl]oxy}quinolin-2-yl)methanone], the IC50 on recombinant human Nav1.8 (setting [4]) is 1860 nM; at recombinant human Nav1.7 it was 619 nM. Moreover, the inhibition in vivo at 30 mg/kg with osteoarthritic rats (setting [2]) stood at 94%. Also, the inhibition in vivo at 100 mg/kg in assay [1] (setting [3]) came out at 64%.

Consider `CN(C)C(=O)CNC(=O)c1ccc2cc(Oc3ccc(C(F)(F)F)cn3)ccc2n1` [Example 33, N-[2-(dimethylamino)-2-oxoethyl]-6-{[5-(trifluoromethyl)pyridin-2-yl]oxy}quinoline-2-carboxamide], for which the IC50 amounted to 740 nM on recombinant human Nav1.8 and 471 nM at recombinant human Nav1.7. In addition, the inhibition in vivo at 30 mg/kg with osteoarthritic rats (setting [2]) was determined as 61%. Moreover, the inhibition in vivo at 100 mg/kg in assay [1] (setting [3]) was 50%.

As for `O=C(c1ccc2cc(Oc3ccc(C(F)(F)F)cn3)ccc2n1)N1CCC(F)C1` (stereo not shown) [Example 35, (3-fluoropyrrolidin-1-yl)(6-{[5-(trifluoromethyl)pyridin-2-yl]oxy}quinolin-2-yl)methanone], at recombinant human Nav1.7 (setting [5]), the IC50 came out at 1270 nM. Besides, in the assay on osteoarthritic rats (setting [6]), the inhibition in vivo at 10 mg/kg was 79%. In addition, the inhibition in vivo at 100 mg/kg in assay [1] (setting [3]) worked out at 74%.

Take `O=C(c1ccc2cc(Oc3ccc(C(F)(F)F)cn3)ccc2n1)N1C[C@@H](F)C[C@H]1CO` [Example 50, [(2S,4S)-4-fluoro-2-(hydroxymethyl)pyrrolidin-1-yl](6-{[5-(trifluoromethyl)pyridin-2-yl]oxy}quinolin-2-yl)methanone]: the IC50 at recombinant human Nav1.7 (setting [5]) is 12200 nM. The inhibition in vivo at 30 mg/kg with osteoarthritic rats (setting [2]) was found to be 81%. In assay [1] (setting [3]), the inhibition in vivo at 100 mg/kg was 94%.

Turning to `O=C(c1ccc2cc(Oc3ccc(C(F)(F)F)cn3)ccc2n1)N1CC[C@H](F)C1` [Example 51, [(3S)-3-fluoropyrrolidin-1-yl](6-{[5-(trifluoromethyl)pyridin-2-yl]oxy}quinolin-2-yl)methanone], the half-maximal inhibitory concentration (IC50) on recombinant human Nav1.7 (setting [5]) was determined as 2250 nM. Also, the inhibition in vivo at 30 mg/kg in the assay with osteoarthritic rats (setting [2]) came out at 52%. In addition, the inhibition in vivo at 100 mg/kg in assay [1] (setting [3]) worked out at 90%.

With `O=C(c1ccc2cc(Oc3ccc(C(F)(F)F)cn3)ccc2n1)N1CC[C@@H](F)C1` [Example 52, [(3R)-3-fluoropyrrolidin-1-yl](6-{[5-(trifluoromethyl)pyridin-2-yl]oxy}quinolin-2-yl)methanone], the 50% inhibitory concentration (IC50) on recombinant human Nav1.7 (setting [5]) came out at 2980 nM. Further, the inhibition in vivo at 30 mg/kg with osteoarthritic rats (setting [2]) is 86%. In addition, the inhibition in vivo at 100 mg/kg in assay [1] (setting [3]) stood at 81%.

On to `O=C(NC1CC(F)(F)C1)c1ccc2cc(Oc3ccc(C(F)(F)F)cn3)ccc2n1` [Example 59, N-(3,3-difluorocyclobutyl)-6-{[5-(trifluoromethyl)pyridin-2-yl]oxy}quinoline-2-carboxamide], for which, at recombinant human Nav1.7, the concentration for half-maximal inhibition (IC50) came out at 1700 nM. Also, the inhibition in vivo at 30 mg/kg with osteoarthritic rats (setting [2]) was determined as 83%. In assay [1] (setting [3]), the inhibition in vivo at 100 mg/kg amounted to 84%.

For `O=C(NCC(F)(F)F)c1ccc2cc(Oc3ccc(C(F)(F)F)cn3)ccc2n1` [Example 344, N-(2,2,2-trifluoroethyl)-6-{[5-(trifluoromethyl)pyridin-2-yl]oxy}quinoline-2-carboxamide], the results for the IC50 on recombinant human Nav1.8 (setting [4]) and on recombinant human Nav1.7 (setting [5]) were 670 nM and 2100 nM, respectively. In the assay with osteoarthritic rats (setting [2]), the inhibition in vivo at 30 mg/kg is 59%. Further, the inhibition in vivo at 100 mg/kg in assay [1] (setting [3]) was 76%.

Turning to `O=C(c1ccc2cc(Oc3ccc(C(F)(F)F)cn3)ccc2n1)N1CC(OCC(F)F)C1` [Example 619, [3-(2,2-difluoroethoxy)azetidin-1-yl](6-{[5-(trifluoromethyl)pyridin-2-yl]oxy}quinolin-2-yl)methanone], the results for the concentration for half-maximal inhibition (IC50) on recombinant human Nav1.8 (setting [4]) and at recombinant human Nav1.7 (setting [5]) were 2910 nM and 2880 nM, respectively. In addition, the inhibition in vivo at 30 mg/kg with osteoarthritic rats (setting [2]) worked out at 53%.
